Source: the supplement of paper PMC10883282
Counter-ions that a name gives are not always drawn. ± gives the standard deviation of the averaged measurements.

System: RD
Experiment: relative viability vs DMSO control (72 h) (fraction); higher = more viable cells
How it was run: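 Plates held 72 h at 37 °C and 5% CO2 contained sarcoma cell lines seeded in 384-well format to reach 80–90% confluence, plus 2.5 µl of serially diluted compound added after 24 h. Source plate concentrations ran from 10 mM to 0.0002 mM, with 0.1% DMSO as vehicle and a 5 µM positive control. Percent growth from ATPLite readings, averaged over up to triplicate wells, gave relative viability. Values were rescaled with 1 as full and 0 as none.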

Row | SMILES | relative viability (0.00017 µM) | relative viability (0.00051 µM) | relative viability (0.00152 µM) | relative viability (0.00457 µM) | relative viability (0.01372 µM) | relative viability (0.04115 µM) | relative viability (0.1235 µM) | relative viability (0.3704 µM) | relative viability (1.111 µM) | relative viability (3.333 µM) | relative viability (10 µM)
1 | Cc1cc(C)c(/C=C2\C(=O)Nc3ccccc32)[nH]1 [Semaxanib] | 1.07 ± 0.053 | 1.05 ± 0.042 | 1.06 ± 0.035 | 1.08 ± 0.016 | 1.08 ± 0.028 | 1.088 ± 0.0067 | 1.09 ± 0.037 | 1.09 ± 0.02 | 1.08 ± 0.023 | 1.06 ± 0.046 | 1 ± 0.041
2 | CC1(C)CNc2cc(NC(=O)c3cccnc3NCc3ccncc3)ccc21 [Motesanib] | 0.967 ± 0.013 | 0.964 ± 0.041 | 0.973 ± 0.046 | 0.96 ± 0.046 | 0.965 ± 0.04 | 0.989 ± 0.051 | 0.962 ± 0.032 | 0.975 ± 0.028 | 0.996 ± 0.056 | 1.03 ± 0.034 | 0.987 ± 0.066
3 | CNC(=O)c1ccc(-c2cnc3ncc(Cc4ccc5ncccc5c4)n3n2)cc1F [Capmatinib] | 1.11 ± 0.025 | 1.1 ± 0.053 | 1.13 ± 0.037 | 1.15 ± 0.065 | 1.12 ± 0.028 | 1.12 ± 0.042 | 1.13 ± 0.077 | 1.14 ± 0.053 | 1.15 ± 0.072 | 1.13 ± 0.12 | 1.1 ± 0.1
4 | CC(C)N1CCN(Cc2cnc(-c3cc(-c4cccc5[nH]ccc45)cc4[nH]ncc34)o2)CC1 [Nemiralisib] | 0.931 ± 0.024 | 0.951 ± 0.017 | 0.916 ± 0.051 | 0.955 ± 0.025 | 0.941 ± 0.025 | 0.937 ± 0.011 | 0.964 ± 0.016 | 0.902 ± 0.028 | 0.83 ± 0.01 | 0.692 ± 0.053 | 0.128 ± 0.083
5 | CO[C@H]1C[C@@H]2CC[C@@H](C)[C@@](O)(O2)C(=O)C(=O)N2CCCC[C@H]2C(=O)O[C@H]([C@H](C)C[C@@H]2CC[C@@H](OP(C)(C)=O)[C@H](OC)C2)CC(=O)[C@H](C)/C=C(\C)[C@@H](O)[C@@H](OC)C(=O)[C@H](C)C[C@H](C)/C=C/C=C/C=C/1C [Ridaforolimus] | 1.06 ± 0.032 | 1.05 ± 0.049 | 0.921 ± 0.01 | 0.847 ± 0.02 | 0.753 ± 0.038 | 0.75 ± 0.036 | 0.764 ± 0.029 | 0.71 ± 0.053 | 0.715 ± 0.071 | 0.701 ± 0.053 | 0.683 ± 0.05
6 | Nc1cc(C(F)(F)F)c(-c2cc(N3CCOCC3)nc(N3CCOCC3)n2)cn1 [Buparlisib] | 1.09 ± 0.015 | 1.06 ± 0.025 | 1.09 ± 0.055 | 1.08 ± 0.05 | 1.07 ± 0.028 | 1.09 ± 0.045 | 1 ± 0.046 | 0.868 ± 0.045 | 0.428 ± 0.042 | 0.133 ± 0.011 | 0.126 ± 0.015
7 | Cc1ccc(F)c(NC(=O)Nc2ccc(-c3cccc4[nH]nc(N)c34)cc2)c1 [Linifanib] | 1.07 ± 0.027 | 1.07 ± 0.028 | 1.08 ± 0.039 | 1.124 ± 0.01 | 1.12 ± 0.025 | 1.1 ± 0.033 | 1.14 ± 0.018 | 1.14 ± 0.031 | 1.12 ± 0.031 | 1.11 ± 0.042 | 1.13 ± 0.029
8 | N#CC[C@H](C1CCCC1)n1cc(-c2ncnc3[nH]ccc23)cn1 [Ruxolitinib] | 0.965 ± 0.052 | 0.972 ± 0.049 | 0.965 ± 0.041 | 0.977 ± 0.059 | 0.97 ± 0.034 | 0.979 ± 0.044 | 0.973 ± 0.051 | 0.965 ± 0.058 | 0.976 ± 0.056 | 0.976 ± 0.092 | 0.895 ± 0.055
9 | C=CC(=O)Nc1cccc(Oc2nc(Nc3ccc(N4CCN(C)CC4)cc3)nc3ccsc23)c1 [Olmutinib] | 1.02 ± 0.051 | 1.04 ± 0.045 | 1.03 ± 0.046 | 1.04 ± 0.032 | 1.03 ± 0.068 | 1.03 ± 0.056 | 1.04 ± 0.051 | 1.07 ± 0.058 | 1.01 ± 0.051 | 0.892 ± 0.08 | 0.174 ± 0.025
10 | CCCS(=O)(=O)Nc1ccc(F)c(C(=O)c2c[nH]c3ncc(-c4ccc(Cl)cc4)cc23)c1F [Vemurafenib] | 1.14 ± 0.071 | 1.12 ± 0.08 | 1.14 ± 0.073 | 1.13 ± 0.073 | 1.12 ± 0.059 | 1.13 ± 0.061 | 1.11 ± 0.053 | 1.12 ± 0.053 | 1.14 ± 0.07 | 1.11 ± 0.036 | 0.785 ± 0.079
11 | Cc1ccc(NC(=O)c2ccc(CN3CCN(C)CC3)cc2)cc1Nc1nc(-c2cccnc2)cs1 [Masitinib] | 0.967 ± 0.042 | 0.962 ± 0.054 | 0.995 ± 0.039 | 1.03 ± 0.091 | 1.01 ± 0.096 | 0.995 ± 0.091 | 0.995 ± 0.1 | 0.976 ± 0.1 | 0.872 ± 0.074 | 0.587 ± 0.05 | 0.13 ± 0.02
12 | Cc1cnc(Nc2ccc(OCCN3CCCC3)cc2)nc1Nc1cccc(S(=O)(=O)NC(C)(C)C)c1 [Fedratinib] | 1.07 ± 0.031 | 1.09 ± 0.03 | 1.12 ± 0.042 | 1.13 ± 0.048 | 1.12 ± 0.064 | 1.14 ± 0.058 | 1.09 ± 0.09 | 0.785 ± 0.066 | 0.445 ± 0.025 | 0.0678 ± 0.011 | 0.00303 ± 0.0004
13 | C[C@@H](c1ccc2nccn2c1)n1nnc2ncc(-c3cnn(C)c3)nc21 [Volitinib] | 1.11 ± 0.027 | 1.11 ± 0.036 | 1.14 ± 0.03 | 1.12 ± 0.039 | 1.11 ± 0.022 | 1.1 ± 0.02 | 1.14 ± 0.016 | 1.14 ± 0.023 | 1.09 ± 0.017 | 1.07 ± 0.037 | 1.02 ± 0.037
14 | COc1cccc2c1C(=O)c1c(O)c3c(c(O)c1C2=O)C[C@@](O)(C(=O)CO)C[C@@H]3O[C@H]1C[C@H](N)[C@H](O)[C@H](C)O1 [Doxorubicin Hydrochloride] | 1.12 ± 0.074 | 1.09 ± 0.068 | 1.12 ± 0.069 | 1.08 ± 0.072 | 1.1 ± 0.028 | 0.892 ± 0.011 | 0.556 ± 0.019 | 0.214 ± 0.015 | 0.0954 ± 0.008 | 0.0741 ± 0.0052 | 0.0196 ± 0.00075
15 | CCN1CCN(Cc2ccc(Nc3ncc(F)c(-c4cc(F)c5nc(C)n(C(C)C)c5c4)n3)nc2)CC1 [Abemaciclib] | 1.12 ± 0.06 | 1.14 ± 0.056 | 1.09 ± 0.05 | 1.11 ± 0.054 | 1.1 ± 0.059 | 1.07 ± 0.081 | 1.06 ± 0.078 | 1.07 ± 0.036 | 1.1 ± 0.072 | 1.04 ± 0.049 | 0.863 ± 0.039
16 | C=CC(=O)N1CCC([C@@H]2CCNc3c(C(N)=O)c(-c4ccc(Oc5ccccc5)cc4)nn32)CC1 [Zanubrutinib] | 0.942 ± 0.064 | 0.952 ± 0.048 | 0.964 ± 0.068 | 0.958 ± 0.058 | 0.952 ± 0.046 | 0.96 ± 0.079 | 0.926 ± 0.075 | 0.893 ± 0.11 | 0.876 ± 0.1 | 0.847 ± 0.081 | 0.843 ± 0.06
17 | COc1cc2/c(=N/c3ccc(Br)cc3F)nc[nH]c2cc1OCC1CCN(C)CC1 [Vandetanib] | 1.1 ± 0.074 | 1.1 ± 0.066 | 1.09 ± 0.057 | 1.11 ± 0.081 | 1.1 ± 0.055 | 1.11 ± 0.088 | 1.04 ± 0.083 | 1.01 ± 0.061 | 0.96 ± 0.037 | 0.139 ± 0.017 | 0.0241 ± 0.0083
18 | C[C@@H]1COCCN1c1cc(-c2ccnn2C)c2ccnc(-c3ccn[nH]3)c2n1 | 1.08 ± 0.059 | 1.09 ± 0.027 | 1.09 ± 0.083 | 1.12 ± 0.065 | 1.1 ± 0.037 | 1.08 ± 0.046 | 0.93 ± 0.03 | 0.627 ± 0.025 | 0.378 ± 0.018 | 0.23 ± 0.017 | 0.188 ± 0.011
19 | C[C@]1(O)C[C@@H](c2nc(-c3ccc4ccc(-c5ccccc5)nc4c3)c3c(N)nccn32)C1 [Linsitinib] | 1.03 ± 0.04 | 1.09 ± 0.066 | 1.1 ± 0.047 | 1.06 ± 0.05 | 1.039 ± 0.0018 | 1.03 ± 0.035 | 0.875 ± 0.048 | 0.672 ± 0.0074 | 0.639 ± 0.028 | 0.633 ± 0.02 | 0.568 ± 0.0034
